For the assay, the system named is pentagastrin-stimulated acid secretion of the perfused rat stomach. As to conditions: perfused rat stomach in vivo, dose 1 μmol/kg i.v. The protocol:
The pH (pH meter 632, glass electrode EA 147; φ=5 mm, Metrohm) and, by titration with a freshly prepared 0.01 N NaOH solution to pH 7 (Dosimat 665 Metrohm), the secreted HCl were determined in the effluent in each case collected at an interval of 15 minutes.
The gastric secretion was stimulated by continuous infusion of 1 μg/kg (=1.65 ml/h) of i.v. pentagastrin (left femoral vein) about 30 min after the end of the operation (i.e. after determination of 2 preliminary fractions).
The body temperature of the animals was kept at a constant 37.8-38° C. by infrared irradiation and heat pads (automatic, stepless control by means of a rectal temperature sensor).

For the compound `COCCO[C@@H]1c2ccn3c(C)c(C)nc3c2O[C@H](c2ccccc2)[C@@H]1O` [Example 1, (7R,8R,9R)-2,3-Dimethyl-8-hydroxy-7-(2-methoxyethoxy)-9-phenyl-7H-8,9-dihydro-pyrano-[2,3-c]imidazo[1,2-a]pyridine], the “Inhibition of acid secretion” value came to 100%.

Consider `CCO[C@@H]1c2ccn3c(C)c(C)nc3c2O[C@H](c2ccccc2)[C@@H]1O` [Example 3, (7R,8R,9R)-2,3-Dimethyl-8-hydroxy-7-ethoxy-9-phenyl-7H-8,9-dihydro-pyrano[2,3-c]imidazo-[1,2-a]pyridine], for which the “Inhibition of acid secretion” value is given as 100%.

The record behind these values is patent US6936623B2, “Pyrano[2,3-C]imidazo[-1,2-A]pyridine derivatives for the treatment of gastrointestinal disorders” (Altana Pharma AG, priority 2000, dated 2005).
